# Source: ChEMBL document CHEMBL5244269, “Improving metabolic stability and removing aldehyde oxidase liability in a 5-azaquinazoline series of IRAK4 inhibitors” (Bioorg Med Chem, 2020)
# How the values were obtained:
# Format in all cases: functional
# SUD4 [1] = assay: Growth inhibition of human SU-DHL-4 cells at 1.7 uM incubated for 3 days in presence of 0.033 uM acalabrutinib relative to control; settings: SU-DHL-4, 72 h, time 3 day, read-out: GI
# SUD4 [2] = assay: Growth inhibition of human SU-DHL-4 cells at 1.7 uM incubated for 3 days in presence of 0.017 uM acalabrutinib relative to control; settings: SU-DHL-4, 72 h, time 3 day, read-out: GI
# SUD4 [3] = assay: Growth inhibition of human SU-DHL-4 cells at 1.7 uM incubated for 3 days in presence of 0.003 uM acalabrutinib relative to control; settings: SU-DHL-4, 72 h, time 3 day, read-out: GI
# SUD4 [4] = assay: Growth inhibition of human SU-DHL-4 cells at 0.33 uM incubated for 3 days in presence of 0.17 uM acalabrutinib relative to control; settings: SU-DHL-4, 72 h, time 3 day, read-out: GI
# SUD4 [5] = assay: Growth inhibition of human SU-DHL-4 cells at 0.33 uM incubated for 3 days in presence of 0.033 uM acalabrutinib relative to control; settings: SU-DHL-4, 72 h, time 3 day, read-out: GI
# SUD4 [6] = assay: Growth inhibition of human SU-DHL-4 cells at 0.33 uM incubated for 3 days in presence of 0.017 uM acalabrutinib relative to control; settings: SU-DHL-4, 72 h, time 3 day, read-out: GI
# SUD4 [7] = assay: Growth inhibition of human SU-DHL-4 cells at 0.17 uM incubated for 3 days in presence of 0.33 uM acalabrutinib relative to control; settings: SU-DHL-4, 72 h, time 3 day, read-out: GI
# SUD4 [8] = assay: Growth inhibition of human SU-DHL-4 cells at 0.33 uM incubated for 3 days in presence of 0.003 uM acalabrutinib relative to control; settings: SU-DHL-4, 72 h, time 3 day, read-out: GI
# SUD4 [9] = assay: Growth inhibition of human SU-DHL-4 cells at 0.17 uM incubated for 3 days in presence of 0.17 uM acalabrutinib relative to control; settings: SU-DHL-4, 72 h, time 3 day, read-out: GI
# SUD4 [10] = assay: Growth inhibition of human SU-DHL-4 cells at 0.17 uM incubated for 3 days in presence of 0.033 uM acalabrutinib relative to control; settings: SU-DHL-4, 72 h, time 3 day, read-out: GI
# SUD4 [11] = assay: Growth inhibition of human SU-DHL-4 cells at 0.17 uM incubated for 3 days in presence of 0.017 uM acalabrutinib relative to control; settings: SU-DHL-4, 72 h, time 3 day, read-out: GI
# SUD4 [12] = assay: Growth inhibition of human SU-DHL-4 cells at 0.17 uM incubated for 3 days in presence of 0.003 uM acalabrutinib relative to control; settings: SU-DHL-4, 72 h, time 3 day, read-out: GI
# OCI-Ly10 [13] = assay: Growth inhibition of human OCILY10 cells at 0.17 uM incubated for 3 days in presence of 0.003 uM acalabrutinib relative to control; settings: OCI-Ly10, 72 h, time 3 day, read-out: GI
# OCI-Ly10 [14] = assay: Growth inhibition of human OCILY10 cells at 0.17 uM incubated for 3 days in presence of 0.033 uM acalabrutinib relative to control; settings: OCI-Ly10, 72 h, time 3 day, read-out: GI
# OCI-Ly10 [15] = assay: Growth inhibition of human OCILY10 cells at 0.17 uM incubated for 3 days in presence of 0.17 uM acalabrutinib relative to control; settings: OCI-Ly10, 72 h, time 3 day, read-out: GI
# OCI-Ly10 [16] = assay: Growth inhibition of human OCILY10 cells at 0.17 uM incubated for 3 days in presence of 0.33 uM acalabrutinib relative to control; settings: OCI-Ly10, 72 h, time 3 day, read-out: GI
# OCI-Ly10 [17] = assay: Growth inhibition of human OCILY10 cells at 0.33 uM incubated for 3 days in presence of 0.003 uM acalabrutinib relative to control; settings: OCI-Ly10, 72 h, time 3 day, read-out: GI
# OCI-Ly10 [18] = assay: Growth inhibition of human OCILY10 cells at 0.33 uM incubated for 3 days in presence of 0.017 uM acalabrutinib relative to control; settings: OCI-Ly10, 72 h, time 3 day, read-out: GI
# OCI-Ly10 [19] = assay: Growth inhibition of human OCILY10 cells at 0.33 uM incubated for 3 days in presence of 0.033 uM acalabrutinib relative to control; settings: OCI-Ly10, 72 h, time 3 day, read-out: GI
# OCI-Ly10 [20] = assay: Growth inhibition of human OCILY10 cells at 0.33 uM incubated for 3 days in presence of 0.33 uM acalabrutinib relative to control; settings: OCI-Ly10, 72 h, time 3 day, read-out: GI
# OCI-Ly10 [21] = assay: Growth inhibition of human OCILY10 cells at 1.7 uM incubated for 3 days in presence of 0.003 uM acalabrutinib relative to control; settings: OCI-Ly10, 72 h, time 3 day, read-out: GI
# OCI-Ly10 [22] = assay: Growth inhibition of human OCILY10 cells at 1.7 uM incubated for 3 days in presence of 0.017 uM acalabrutinib relative to control; settings: OCI-Ly10, 72 h, time 3 day, read-out: GI
# OCI-Ly10 [23] = assay: Growth inhibition of human OCILY10 cells at 1.7 uM incubated for 3 days in presence of 0.033 uM acalabrutinib relative to control; settings: OCI-Ly10, 72 h, time 3 day, read-out: GI
# OCI-Ly10 [24] = assay: Growth inhibition of human OCILY10 cells at 1.7 uM incubated for 3 days in presence of 0.17 uM acalabrutinib relative to control; settings: OCI-Ly10, 72 h, time 3 day, read-out: GI
# OCI-Ly10 [25] = assay: Growth inhibition of human OCILY10 cells at 3.3 uM incubated for 3 days in presence of 0.003 uM acalabrutinib relative to control; settings: OCI-Ly10, 72 h, time 3 day, read-out: GI
# OCI-Ly10 [26] = assay: Growth inhibition of human OCILY10 cells at 3.3 uM incubated for 3 days in presence of 0.017 uM acalabrutinib relative to control; settings: OCI-Ly10, 72 h, time 3 day, read-out: GI
# OCI-Ly10 [27] = assay: Growth inhibition of human OCILY10 cells at 3.3 uM incubated for 3 days in presence of 0.17 uM acalabrutinib relative to control; settings: OCI-Ly10, 72 h, time 3 day, read-out: GI
# OCI-Ly10 [28] = assay: Growth inhibition of human OCILY10 cells at 3.3 uM incubated for 3 days in presence of 0.33 uM acalabrutinib relative to control; settings: OCI-Ly10, 72 h, time 3 day, read-out: GI
# OCI-Ly10 [29] = assay: Growth inhibition of human OCILY10 cells at 10 uM incubated for 3 days in presence of 0.003 uM acalabrutinib relative to control; settings: OCI-Ly10, 72 h, time 3 day, read-out: GI
# OCI-Ly10 [30] = assay: Growth inhibition of human OCILY10 cells at 10 uM incubated for 3 days in presence of 0.017 uM acalabrutinib relative to control; settings: OCI-Ly10, 72 h, time 3 day, read-out: GI
# OCI-Ly10 [31] = assay: Growth inhibition of human OCILY10 cells at 10 uM incubated for 3 days in presence of 0.033 uM acalabrutinib relative to control; settings: OCI-Ly10, 72 h, time 3 day, read-out: GI
# OCI-Ly10 [32] = assay: Growth inhibition of human OCILY10 cells at 10 uM incubated for 3 days in presence of 0.17 uM acalabrutinib relative to control; settings: OCI-Ly10, 72 h, time 3 day, read-out: GI
# OCI-Ly10 [33] = assay: Growth inhibition of human OCILY10 cells at 10 uM incubated for 3 days in presence of 0.33 uM acalabrutinib relative to control; settings: OCI-Ly10, 72 h, time 3 day, read-out: GI
# SUD4 [34] = assay: Growth inhibition of human SU-DHL-4 cells at 1.7 uM incubated for 3 days in presence of 0.17 uM acalabrutinib relative to control; settings: SU-DHL-4, 72 h, time 3 day, read-out: GI
# SUD4 [35] = assay: Growth inhibition of human SU-DHL-4 cells at 1.7 uM incubated for 3 days in presence of 0.33 uM acalabrutinib relative to control; settings: SU-DHL-4, 72 h, time 3 day, read-out: GI
# SUD4 [36] = assay: Growth inhibition of human SU-DHL-4 cells at 3.3 uM incubated for 3 days in presence of 0.003 uM acalabrutinib relative to control; settings: SU-DHL-4, 72 h, time 3 day, read-out: GI
# SUD4 [37] = assay: Growth inhibition of human SU-DHL-4 cells at 3.3 uM incubated for 3 days in presence of 0.017 uM acalabrutinib relative to control; settings: SU-DHL-4, 72 h, time 3 day, read-out: GI
# SUD4 [38] = assay: Growth inhibition of human SU-DHL-4 cells at 3.3 uM incubated for 3 days in presence of 0.033 uM acalabrutinib relative to control; settings: SU-DHL-4, 72 h, time 3 day, read-out: GI
# SUD4 [39] = assay: Growth inhibition of human SU-DHL-4 cells at 3.3 uM incubated for 3 days in presence of 0.17 uM acalabrutinib relative to control; settings: SU-DHL-4, 72 h, time 3 day, read-out: GI
# SUD4 [40] = assay: Growth inhibition of human SU-DHL-4 cells at 10 uM incubated for 3 days in presence of 0.017 uM acalabrutinib relative to control; settings: SU-DHL-4, 72 h, time 3 day, read-out: GI
# SUD4 [41] = assay: Growth inhibition of human SU-DHL-4 cells at 10 uM incubated for 3 days in presence of 0.033 uM acalabrutinib relative to control; settings: SU-DHL-4, 72 h, time 3 day, read-out: GI
structure (smiles),measurement,setting,value
Cc1ncc(-c2nc3c(OC4(C)CC4)nc(Nc4cnn(C5CCN(C)CC5)c4)nc3cc2F)cn1,inhibition of growth at 1.7 µM,SUD4 [1],-4%
same,inhibition of growth at 1.7 µM,SUD4 [2],0%
same,inhibition of growth at 1.7 µM,SUD4 [3],-1%
same,inhibition of growth at 0.33 µM,SUD4 [4],-2%
same,inhibition of growth at 0.33 µM,SUD4 [5],-3%
same,inhibition of growth at 0.33 µM,SUD4 [6],1%
same,inhibition of growth at 0.17 µM,SUD4 [7],-2%
same,inhibition of growth at 0.33 µM,SUD4 [8],0%
same,inhibition of growth at 0.17 µM,SUD4 [9],-3%
same,inhibition of growth at 0.17 µM,SUD4 [10],-4%
same,inhibition of growth at 0.17 µM,SUD4 [11],0%
same,inhibition of growth at 0.17 µM,SUD4 [12],-1%
same,inhibition of growth at 0.17 µM,OCI-Ly10 [13],24%
same,inhibition of growth at 0.17 µM,OCI-Ly10 [14],117%
same,inhibition of growth at 0.17 µM,OCI-Ly10 [15],147%
same,inhibition of growth at 0.17 µM,OCI-Ly10 [16],138%
same,inhibition of growth at 0.33 µM,OCI-Ly10 [17],33%
same,inhibition of growth at 0.33 µM,OCI-Ly10 [18],122%
same,inhibition of growth at 0.33 µM,OCI-Ly10 [19],155%
same,inhibition of growth at 0.33 µM,OCI-Ly10 [20],172%
same,inhibition of growth at 1.7 µM,OCI-Ly10 [21],93%
same,inhibition of growth at 1.7 µM,OCI-Ly10 [22],188%
same,inhibition of growth at 1.7 µM,OCI-Ly10 [23],193%
same,inhibition of growth at 1.7 µM,OCI-Ly10 [24],190%
same,inhibition of growth at 3.3 µM,OCI-Ly10 [25],156%
same,inhibition of growth at 3.3 µM,OCI-Ly10 [26],194%
same,inhibition of growth at 3.3 µM,OCI-Ly10 [27],194%
same,inhibition of growth at 3.3 µM,OCI-Ly10 [28],194%
same,inhibition of growth at 10 µM,OCI-Ly10 [29],195%
same,inhibition of growth at 10 µM,OCI-Ly10 [30],198%
same,inhibition of growth at 10 µM,OCI-Ly10 [31],197%
same,inhibition of growth at 10 µM,OCI-Ly10 [32],199%
same,inhibition of growth at 10 µM,OCI-Ly10 [33],197%
same,inhibition of growth at 1.7 µM,SUD4 [34],-3%
same,inhibition of growth at 1.7 µM,SUD4 [35],-2%
same,inhibition of growth at 3.3 µM,SUD4 [36],-1%
same,inhibition of growth at 3.3 µM,SUD4 [37],0%
same,inhibition of growth at 3.3 µM,SUD4 [38],-4%
same,inhibition of growth at 3.3 µM,SUD4 [39],-3%
same,inhibition of growth at 10 µM,SUD4 [40],2%
same,inhibition of growth at 10 µM,SUD4 [41],-2%
